Experimental findings from patent publication US12479847B2 (DANA-FARBER CANCER INSTITUTE, INC., priority 2019, dated 2025) are described below.

Assay in all cases: KINOMEscan (ScanMAX) kinase profiling
Common to all, as to assay type: binding

For assay [1], the target named is T1, panel of 468 kinases (Homo sapiens, UniProt Q02750).
T1 construct: purchased KINOMEscan (ScanMAX) service
The following applies: MEK1; 1 μM; read-out: % control.

Assay [2] concerns the target T2, panel of 468 kinases (Homo sapiens, UniProt Q13554).
T2 construct: purchased KINOMEscan (ScanMAX) service
To be noted: CAMK2B; 1 μM; read-out: % control.

Assay [3] concerns the target T3, panel of 468 kinases (Homo sapiens, UniProt Q8N752).
T3 construct: purchased KINOMEscan (ScanMAX) service
T3 sequence (Q8N752 1-337): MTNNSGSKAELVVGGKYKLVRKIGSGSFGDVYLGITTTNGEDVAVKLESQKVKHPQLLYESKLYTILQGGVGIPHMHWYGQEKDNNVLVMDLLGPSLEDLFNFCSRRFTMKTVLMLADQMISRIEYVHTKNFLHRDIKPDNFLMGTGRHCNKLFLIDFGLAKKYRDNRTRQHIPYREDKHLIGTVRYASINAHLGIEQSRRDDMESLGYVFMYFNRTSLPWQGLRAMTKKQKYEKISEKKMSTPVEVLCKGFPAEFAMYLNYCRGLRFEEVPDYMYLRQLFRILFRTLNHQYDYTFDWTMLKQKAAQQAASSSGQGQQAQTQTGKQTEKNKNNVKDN
To be noted: CSNK1A1L; 1 μM; read-out: % control.

The target of assay [4] is T4, panel of 468 kinases (Homo sapiens, UniProt Q96SB4).
T4 construct: purchased KINOMEscan (ScanMAX) service
The following applies: SRPK1; 1 μM; read-out: % control.

Assay [5] concerns the target T5, panel of 468 kinases (Homo sapiens, UniProt Q56UN5).
T5 construct: purchased KINOMEscan (ScanMAX) service
T5 sequence (Q56UN5 1-1328): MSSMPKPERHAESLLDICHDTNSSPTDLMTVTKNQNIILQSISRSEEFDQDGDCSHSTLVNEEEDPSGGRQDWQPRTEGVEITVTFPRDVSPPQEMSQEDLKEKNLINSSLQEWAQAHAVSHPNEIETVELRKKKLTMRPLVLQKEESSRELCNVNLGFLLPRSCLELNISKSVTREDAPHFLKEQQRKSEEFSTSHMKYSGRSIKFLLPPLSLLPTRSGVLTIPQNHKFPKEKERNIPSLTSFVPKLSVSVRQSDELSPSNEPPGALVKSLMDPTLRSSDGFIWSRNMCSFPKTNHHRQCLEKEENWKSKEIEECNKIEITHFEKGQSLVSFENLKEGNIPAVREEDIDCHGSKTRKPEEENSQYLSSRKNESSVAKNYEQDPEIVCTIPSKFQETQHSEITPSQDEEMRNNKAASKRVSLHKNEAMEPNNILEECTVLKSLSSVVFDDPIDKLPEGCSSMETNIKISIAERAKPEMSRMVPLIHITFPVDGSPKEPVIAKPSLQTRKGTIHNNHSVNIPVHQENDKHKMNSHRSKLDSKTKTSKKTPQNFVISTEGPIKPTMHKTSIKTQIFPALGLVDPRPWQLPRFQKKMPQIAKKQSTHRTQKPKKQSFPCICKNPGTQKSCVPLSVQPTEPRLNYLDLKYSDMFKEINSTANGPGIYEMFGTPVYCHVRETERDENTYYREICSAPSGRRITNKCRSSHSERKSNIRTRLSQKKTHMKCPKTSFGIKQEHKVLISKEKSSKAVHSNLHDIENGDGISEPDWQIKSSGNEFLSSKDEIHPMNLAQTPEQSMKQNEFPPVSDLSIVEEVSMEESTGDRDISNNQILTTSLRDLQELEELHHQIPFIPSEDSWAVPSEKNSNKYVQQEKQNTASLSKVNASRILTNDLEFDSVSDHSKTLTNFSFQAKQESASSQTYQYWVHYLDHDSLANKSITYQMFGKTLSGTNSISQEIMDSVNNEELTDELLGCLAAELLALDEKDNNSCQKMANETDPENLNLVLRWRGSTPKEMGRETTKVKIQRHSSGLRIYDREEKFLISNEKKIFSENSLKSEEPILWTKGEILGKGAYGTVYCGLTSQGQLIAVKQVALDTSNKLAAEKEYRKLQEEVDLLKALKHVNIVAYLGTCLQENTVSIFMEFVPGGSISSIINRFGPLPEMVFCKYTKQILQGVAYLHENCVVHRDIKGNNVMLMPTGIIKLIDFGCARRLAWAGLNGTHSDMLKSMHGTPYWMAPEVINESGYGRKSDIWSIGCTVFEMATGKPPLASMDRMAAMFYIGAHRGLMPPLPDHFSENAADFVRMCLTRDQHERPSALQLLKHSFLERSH
The following applies: YSK4; 1 μM; read-out: % control.

Assay [6] addresses T6, panel of 468 kinases (Homo sapiens, UniProt Q9UHD2).
T6 construct: purchased KINOMEscan (ScanMAX) service
T6 sequence (Q9UHD2 1-729): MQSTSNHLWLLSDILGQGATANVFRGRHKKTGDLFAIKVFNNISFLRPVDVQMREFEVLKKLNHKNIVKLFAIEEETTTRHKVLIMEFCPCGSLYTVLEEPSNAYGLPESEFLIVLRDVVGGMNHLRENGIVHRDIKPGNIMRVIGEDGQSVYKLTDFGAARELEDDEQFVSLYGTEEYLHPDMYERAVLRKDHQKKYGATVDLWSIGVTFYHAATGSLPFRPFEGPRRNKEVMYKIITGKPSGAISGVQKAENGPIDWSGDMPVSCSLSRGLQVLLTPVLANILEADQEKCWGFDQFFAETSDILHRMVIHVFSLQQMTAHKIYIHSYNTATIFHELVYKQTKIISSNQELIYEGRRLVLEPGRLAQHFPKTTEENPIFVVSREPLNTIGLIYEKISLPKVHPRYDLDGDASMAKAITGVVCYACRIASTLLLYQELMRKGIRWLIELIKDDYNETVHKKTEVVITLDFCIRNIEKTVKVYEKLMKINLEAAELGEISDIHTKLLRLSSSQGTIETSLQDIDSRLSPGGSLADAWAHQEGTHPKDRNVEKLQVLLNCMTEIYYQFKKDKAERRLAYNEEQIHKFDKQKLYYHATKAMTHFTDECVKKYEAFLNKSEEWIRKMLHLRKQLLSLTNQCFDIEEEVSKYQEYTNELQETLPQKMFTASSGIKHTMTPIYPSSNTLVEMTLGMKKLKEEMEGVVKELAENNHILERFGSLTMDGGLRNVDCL
To be noted: TBK1; 1 μM; read-out: % control.

T4 sequence (Q96SB4 whole entry): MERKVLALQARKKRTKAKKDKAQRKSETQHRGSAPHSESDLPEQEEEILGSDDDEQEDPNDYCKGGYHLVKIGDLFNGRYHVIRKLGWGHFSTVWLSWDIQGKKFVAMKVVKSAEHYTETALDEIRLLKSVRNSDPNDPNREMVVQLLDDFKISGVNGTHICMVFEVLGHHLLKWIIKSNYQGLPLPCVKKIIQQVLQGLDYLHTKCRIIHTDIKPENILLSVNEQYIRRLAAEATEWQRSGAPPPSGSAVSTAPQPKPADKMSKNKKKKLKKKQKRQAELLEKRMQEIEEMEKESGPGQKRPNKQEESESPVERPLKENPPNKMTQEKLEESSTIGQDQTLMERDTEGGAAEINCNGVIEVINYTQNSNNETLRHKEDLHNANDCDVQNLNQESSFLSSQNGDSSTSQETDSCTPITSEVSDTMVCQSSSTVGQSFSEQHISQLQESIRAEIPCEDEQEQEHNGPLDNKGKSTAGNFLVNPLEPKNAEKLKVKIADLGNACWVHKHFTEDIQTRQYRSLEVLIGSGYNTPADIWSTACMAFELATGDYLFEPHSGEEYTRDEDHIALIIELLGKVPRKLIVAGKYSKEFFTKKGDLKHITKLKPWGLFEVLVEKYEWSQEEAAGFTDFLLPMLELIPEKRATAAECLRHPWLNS
T1 sequence (Q02750 whole entry): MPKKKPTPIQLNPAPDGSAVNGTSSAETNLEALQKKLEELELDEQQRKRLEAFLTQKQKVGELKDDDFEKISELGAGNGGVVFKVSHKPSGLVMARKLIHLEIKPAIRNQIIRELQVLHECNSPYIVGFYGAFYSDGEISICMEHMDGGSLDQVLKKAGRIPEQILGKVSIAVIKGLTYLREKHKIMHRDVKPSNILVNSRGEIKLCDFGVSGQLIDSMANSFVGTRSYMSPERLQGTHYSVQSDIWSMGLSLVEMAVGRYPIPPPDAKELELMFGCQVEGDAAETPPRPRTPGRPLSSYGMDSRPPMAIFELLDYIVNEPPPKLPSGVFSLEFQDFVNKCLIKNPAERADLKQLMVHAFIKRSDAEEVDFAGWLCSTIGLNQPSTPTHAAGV
T2 sequence (Q13554 whole entry): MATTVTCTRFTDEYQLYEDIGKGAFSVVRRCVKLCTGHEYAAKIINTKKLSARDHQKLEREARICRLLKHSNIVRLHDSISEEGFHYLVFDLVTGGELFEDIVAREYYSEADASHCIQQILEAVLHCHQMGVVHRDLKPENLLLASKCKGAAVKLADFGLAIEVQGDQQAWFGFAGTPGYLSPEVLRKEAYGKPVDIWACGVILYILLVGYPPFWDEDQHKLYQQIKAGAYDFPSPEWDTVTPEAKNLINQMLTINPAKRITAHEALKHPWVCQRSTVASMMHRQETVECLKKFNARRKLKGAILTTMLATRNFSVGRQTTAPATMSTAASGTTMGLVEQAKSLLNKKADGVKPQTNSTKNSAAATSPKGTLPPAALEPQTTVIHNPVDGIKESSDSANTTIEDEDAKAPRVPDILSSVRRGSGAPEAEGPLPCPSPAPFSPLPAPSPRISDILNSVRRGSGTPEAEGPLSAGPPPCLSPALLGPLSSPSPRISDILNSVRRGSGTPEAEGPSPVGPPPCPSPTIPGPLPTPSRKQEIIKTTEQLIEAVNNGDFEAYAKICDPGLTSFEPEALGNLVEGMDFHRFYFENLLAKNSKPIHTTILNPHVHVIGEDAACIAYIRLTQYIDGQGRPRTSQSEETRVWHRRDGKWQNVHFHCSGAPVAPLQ

Take `CNc1nc(Nc2ccc(C(=O)N3CCC(N4CCOCC4)CC3)c3c2OCO3)nc2[nH]cc(Cl)c12` [Compound 75, (7-((5-chloro-4-(methylamino)-7H-pyrrolo[2,3-d]pyrimidin-2-yl)amino)benzo[d][1,3]dioxol-4-yl)(4-morpholinopiperidin-1-yl)methanone]: the remaining binding at 1 µM on panel of 468 kinases [1] turned out to be 98%; on panel of 468 kinases [2], 94%; on panel of 468 kinases [3], 70%; on panel of 468 kinases [4] it was 53%; at panel of 468 kinases [5], 0.25%; at panel of 468 kinases [6], 34%.

For the compound `CNc1nc(Nc2ccc(P3(=O)CCN(C4CCOCC4)CC3)cc2OC)nc2[nH]cc(Cl)c12` [Compound 77, 4-(4-((5-chloro-4-(methylamino)-7H-pyrrolo[2,3-d]pyrimidin-2-yl)amino)-3-methoxyphenyl)-1-(tetrahydro-2H-pyran-4-yl)-1,4-azaphosphinane 4-oxide], the remaining binding at 1 µM on panel of 468 kinases [1] stood at 96%; on panel of 468 kinases [2], 92%; on panel of 468 kinases [3], 36%; on panel of 468 kinases [4], 96%; on panel of 468 kinases [5], 4.2%; at panel of 468 kinases [6], 85%.

Consider `CNc1nc(Nc2ccc(S(=O)(=O)N3CCC(N4CCOCC4)CC3)cc2OC)nc2[nH]cc(Cl)c12` [Compound 12, 5-chloro-N2-(2-methoxy-4-((4-morpholinopiperidin-1-yl)sulfonyl)phenyl)-N4-methyl-7H-pyrrolo[2,3-d]pyrimidine-2,4-diamine], for which the remaining binding at 1 µM turned out to be 99% at panel of 468 kinases [1]; 100% at panel of 468 kinases [2]; 56% on panel of 468 kinases [3]; 96% on panel of 468 kinases [4]; 59% on panel of 468 kinases [5]; 95% at panel of 468 kinases [6].
